Columns and labels:
Rat NHE3 = molecular target: T1, Rat NHE3 (Rattus norvegicus, UniProt P26433); assay: Cell-based NHE3 activity under prompt conditions (OK cells, BCECF pH recovery), rat NHE3; details: prompt conditions; for IC50: read-out: Prompt Rat NHE3 pIC50 (converted)
T1 construct: expressed in transfected cells; host or cells: Opossum kidney (OK) cells (ATCC), electroporation
In short: (§1)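 OK cells electroporated with rat or human NHE3 gene, loaded 30 min at room temperature with 5 μM BCECF-AM in NH4Cl-HEPES pH 7.4.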

[1] = tested on: absorption of sodium from the intestinal lumen; assay: Inhibition of intestinal sodium absorption: urinary sodium (uNa) 16 h after single oral dose in rats; format: in vivo, rat; details: oral gavage, 16 h post-dose
In short: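 Eight-week-old Sprague-Dawley rats (n=6) given single oral gavage of compound or water vehicle in the late afternoon, then kept in metabolic cages with chow and water ad libitum. Urine collected over 16 h; sodium quantified by ion chromatography and expressed as % of vehicle mean, compared by one-way ANOVA with Dunnett's test.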

[2] = tested on: absorption of sodium from the intestinal lumen; assay: Fecal form score (FFS) 16 h after oral dose in rats; format: in vivo, rat; details: oral gavage, 16 h post-dose, scale 1-5
In short: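 Eight-week-old Sprague-Dawley rats (n=6) dosed by oral gavage with compound or water vehicle between 4 and 5 PM, then housed in metabolic cages with food and water ad libitum. At 16 h, fecal form scored 1 (normal pellet) to 5 (liquid streams) by two observers; group mean reported.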

Human NHE3 = molecular target: T2, Human NHE3 (Homo sapiens, UniProt P48764); assay: Cell-based NHE3 activity under prompt conditions (OK cells, BCECF pH recovery), human NHE3; details: prompt conditions
T2 construct: expressed in transfected cells; host or cells: Opossum kidney (OK) cells (ATCC), electroporation
T2 sequence (P48764 26-834): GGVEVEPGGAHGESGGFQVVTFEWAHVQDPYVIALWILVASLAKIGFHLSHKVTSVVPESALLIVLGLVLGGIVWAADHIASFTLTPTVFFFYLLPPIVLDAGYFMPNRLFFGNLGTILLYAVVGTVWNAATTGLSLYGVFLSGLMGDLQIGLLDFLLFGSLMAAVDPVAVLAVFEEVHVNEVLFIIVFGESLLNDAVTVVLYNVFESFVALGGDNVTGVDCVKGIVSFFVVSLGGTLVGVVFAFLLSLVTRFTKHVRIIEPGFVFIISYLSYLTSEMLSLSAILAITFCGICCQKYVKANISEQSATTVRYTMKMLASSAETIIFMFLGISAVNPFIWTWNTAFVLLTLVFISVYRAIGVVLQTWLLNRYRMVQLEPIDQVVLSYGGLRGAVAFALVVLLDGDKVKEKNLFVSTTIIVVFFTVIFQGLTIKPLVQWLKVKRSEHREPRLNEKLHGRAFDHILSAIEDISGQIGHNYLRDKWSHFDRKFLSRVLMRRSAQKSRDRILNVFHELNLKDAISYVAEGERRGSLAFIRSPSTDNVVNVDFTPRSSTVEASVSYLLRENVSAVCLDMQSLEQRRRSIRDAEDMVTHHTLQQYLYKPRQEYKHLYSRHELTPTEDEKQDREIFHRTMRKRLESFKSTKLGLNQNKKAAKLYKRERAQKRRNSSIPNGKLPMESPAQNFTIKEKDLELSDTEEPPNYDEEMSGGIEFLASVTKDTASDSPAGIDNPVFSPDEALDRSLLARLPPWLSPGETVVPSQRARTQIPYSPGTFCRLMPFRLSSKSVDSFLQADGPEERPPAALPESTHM
In short: as §1

[3] = tested on: phosphorus and calcium levels in the urine of rats; assay: Urinary excretion of phosphate and calcium in rats (16 h overnight urine); format: in vivo, rat; details: rats, oral gavage, 16 h post-dose

T1 sequence (P26433 29-831): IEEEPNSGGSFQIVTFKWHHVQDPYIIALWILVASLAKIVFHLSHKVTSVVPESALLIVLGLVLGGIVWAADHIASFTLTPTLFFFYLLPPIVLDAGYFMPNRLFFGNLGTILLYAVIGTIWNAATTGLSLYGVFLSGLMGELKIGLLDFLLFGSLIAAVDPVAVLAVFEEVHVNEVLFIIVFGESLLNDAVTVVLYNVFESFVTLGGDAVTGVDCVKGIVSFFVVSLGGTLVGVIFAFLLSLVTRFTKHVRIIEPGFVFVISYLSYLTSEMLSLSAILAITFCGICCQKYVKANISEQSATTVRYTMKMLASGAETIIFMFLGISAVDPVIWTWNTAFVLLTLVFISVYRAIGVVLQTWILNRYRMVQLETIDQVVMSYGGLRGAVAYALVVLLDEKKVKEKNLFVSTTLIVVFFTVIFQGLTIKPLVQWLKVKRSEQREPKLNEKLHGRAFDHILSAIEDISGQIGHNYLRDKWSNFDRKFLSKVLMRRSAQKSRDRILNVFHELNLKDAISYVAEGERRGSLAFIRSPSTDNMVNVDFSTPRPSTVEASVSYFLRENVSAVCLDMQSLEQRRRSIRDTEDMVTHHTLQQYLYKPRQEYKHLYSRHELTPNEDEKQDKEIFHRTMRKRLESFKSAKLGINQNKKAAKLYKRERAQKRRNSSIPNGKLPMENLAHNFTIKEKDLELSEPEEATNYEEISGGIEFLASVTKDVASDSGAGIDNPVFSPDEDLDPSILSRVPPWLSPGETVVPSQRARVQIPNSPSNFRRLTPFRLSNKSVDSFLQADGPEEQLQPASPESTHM

| SMILES | IC50 (Rat NHE3) | Urine Na % of control ([1]; dose 1 mg/kg) | Urine Na % of control ([1]; dose 3 mg/kg) | Urine Na % of control ([1]; dose 10 mg/kg) | Fecal Form Score average ([2]; dose 1 mg/kg) | Fecal Form Score average ([2]; dose 3 mg/kg) | Fecal Form Score average ([2]; dose 10 mg/kg) | Prompt Human NHE3 pIC50 (Human NHE3) | Urine P % of control ([3]; dose 1 mg/kg) | Urine P % of control ([3]; dose 3 mg/kg) | Urine P % of control ([3]; dose 10 mg/kg) | Prompt Rat NHE3 pIC50 (Rat NHE3) | IC50 (Human NHE3; read-out: Prompt Human NHE3 pIC50 (converted)) |
| --- | --- | --- | --- | --- | --- | --- | --- | --- | --- | --- | --- | --- | --- |
| CN1Cc2c(Cl)cc(Cl)cc2[C@H](c2cccc(S(=O)(=O)NCCOCCOCCOCCNC(=O)CCN(CCC(=O)NCCOCCOCCOCCNS(=O)(=O)c3cccc([C@@H]4CN(C)Cc5c(Cl)cc(Cl)cc54)c3)CCC(=O)NCCOCCOCCOCCNS(=O)(=O)c3cccc([C@@H]4CN(C)Cc5c(Cl)cc(Cl)cc54)c3)c2)C1 [compound 79] | 316 nM | 65% | 44% | 17% | 1 | 2 | 3 | 7.20 | 109% | 81% | 33% |  |  |
| NCCOCCOCCOc1cccc(-c2nc(N=C(N)N)nc3ccc(Cl)cc23)c1 [compound 10] |  |  |  | 76% |  |  | 1 | 7.50 |  |  | 80% | 6.65 |  |
| CN1Cc2c(Cl)cc(Cl)cc2[C@H](c2cccc(S(=O)(=O)NCCOCCOCCNC(=O)CCC(CCC(=O)NCCOCCOCCNS(=O)(=O)c3cccc([C@@H]4CN(C)Cc5c(Cl)cc(Cl)cc54)c3)(CCC(=O)NCCOCCOCCNS(=O)(=O)c3cccc([C@@H]4CN(C)Cc5c(Cl)cc(Cl)cc54)c3)NC(=O)NC(CO)(CO)CO)c2)C1 [compound 158] |  |  | 32% |  |  | 2 |  | 6.90 |  | 64% |  | <5.00 |  |
| CN1Cc2c(Cl)cc(Cl)cc2[C@H](c2cccc(S(=O)(=O)NCCOCCOCCOCCNC(=O)COCC(=O)NCCOCCOCCOc3cccc(-c4nc(NC(=N)N)nc5ccc(Cl)cc45)c3)c2)C1 [compound 25] |  |  |  | 87% |  |  | 1 | 6.60 |  |  | 150% | 6.85 |  |
| O=C(NCCOCCOCCOCCNS(=O)(=O)c1ccc(OC2c3ccccc3CC2N2CCCCC2)cc1)C(O)C(O)C(=O)NCCOCCOCCOCCNS(=O)(=O)c1ccc(OC2c3ccccc3CC2N2CCCCC2)cc1 (mixture of isomers) [compound 55] | 20 nM |  |  | 85% |  |  | 1 |  |  |  | 45% |  | 12.6 nM |
| CN1Cc2c(Cl)cc(Cl)cc2[C@H](c2cccc(S(=O)(=O)N(CCO)CCOCCOCCNC(=O)NCCCN(CCCNC(=O)NCCOCCOCCN(CCO)S(=O)(=O)c3cccc([C@@H]4CN(C)Cc5c(Cl)cc(Cl)cc54)c3)CCCNC(=O)NCCOCCOCCN(CCO)S(=O)(=O)c3cccc([C@@H]4CN(C)Cc5c(Cl)cc(Cl)cc54)c3)c2)C1 [compound 146] |  |  | 70% |  |  | 2 |  | 8.35 |  | 58% |  | 7.80 |  |
| CN1Cc2c(Cl)cc(Cl)cc2[C@H](c2cccc(S(=O)(=O)NCCOCCOCCNC(=O)NCCN(CCNC(=O)NCCOCCOCCNS(=O)(=O)c3cccc([C@@H]4CN(C)Cc5c(Cl)cc(Cl)cc54)c3)C(=O)NCCCCCCCCCCCCNC(=O)N(CCNC(=O)NCCOCCOCCNS(=O)(=O)c3cccc([C@@H]4CN(C)Cc5c(Cl)cc(Cl)cc54)c3)CCNC(=O)NCCOCCOCCNS(=O)(=O)c3cccc([C@@H]4CN(C)Cc5c(Cl)cc(Cl)cc54)c3)c2)C1 [compound 86] |  |  |  | 87% |  |  | 1 | 5.90 |  |  | 89% | 5.80 |  |
| CNC(=O)NC(CCC(=O)NCCOCCOCCNS(=O)(=O)c1cccc([C@@H]2CN(C)Cc3c(Cl)cc(Cl)cc32)c1)(CCC(=O)NCCOCCOCCNS(=O)(=O)c1cccc([C@@H]2CN(C)Cc3c(Cl)cc(Cl)cc32)c1)CCC(=O)NCCOCCOCCNS(=O)(=O)c1cccc([C@@H]2CN(C)Cc3c(Cl)cc(Cl)cc32)c1 [compound 130] |  |  | 18% |  |  | 2 |  | 7.20 |  | 70% |  | 6.10 |  |
| CN1Cc2c(Cl)cc(Cl)cc2[C@H](c2cccc(S(=O)(=O)NCCOCCOCCOCCN)c2)C1 [compound 22] |  | 91% |  | 19% | 1 |  | 2 | 6.95 | 64% |  | 40% | 7.34 |  |
| N=C(N)Nc1nc(-c2cccc(S(=O)(=O)NCCOCCOCCN)c2)c2cc(Cl)ccc2n1 [compound 7] |  |  |  | 76% |  |  | 1 | 7.20 |  |  | 90% | 6.30 |  |
| C/C(=C\c1cc(F)c(Oc2ccc(S(=O)(=O)NCCOCCOCCOCCNC(=O)CN(C)CC(=O)NCCOCCOCCOCCNS(=O)(=O)c3ccc(Oc4c(F)cc(/C=C(\C)C(=O)N=C(N)N)cc4F)cc3)cc2)c(F)c1)C(=O)N=C(N)N [compound 9] |  |  |  | 56% |  |  | 1 | 7.10 |  |  | 77% | 6.50 |  |
| CN(CC(=O)NCCOCCOCCOCCN1CCN(c2ccc(-c3nc(NC(=N)N)nc4ccc(Cl)cc34)cc2)CC1)CC(=O)NCCOCCOCCOCCN1CCN(c2ccc(-c3c(Cl)ccc4nc(NC(=N)N)ncc34)cc2)CC1 [compound 21] | 794 nM |  |  | 66% |  |  | 1 | 7.00 |  |  | 101% |  |  |
| COCCNS(=O)(=O)c1cccc(C2CN(C)Cc3c(Cl)cc(Cl)cc32)c1 (centres unmarked) [compound 2] |  |  |  | 115% |  |  | 1 | 6.50 |  |  | 80% | 6.70 |  |
| N=C(N)Nc1nc(-c2ccc(N3CCN(CCOCCOCCOCCNC(=O)NCCOCCOCCNC(=O)NCCOCCOCCOCCN4CCN(c5ccc(-c6nc(NC(=N)N)nc7ccc(Cl)cc67)cc5)CC4)CC3)cc2)c2cc(Cl)ccc2n1 [compound 20] |  |  |  | 86% |  |  | 1 | 7.20 |  |  | 81% | 7.30 |  |
| CN1Cc2c(Cl)cc(Cl)cc2[C@H](c2cccc(S(=O)(=O)NCCOCCOCCNC(=O)CCC(CCC(=O)NCCOCCOCCNS(=O)(=O)c3cccc([C@@H]4CN(C)Cc5c(Cl)cc(Cl)cc54)c3)(CCC(=O)NCCOCCOCCNS(=O)(=O)c3cccc([C@@H]4CN(C)Cc5c(Cl)cc(Cl)cc54)c3)NC(=O)NCCN3CCOCC3)c2)C1 [compound 144] |  |  | 32% |  |  | 2 |  | 7.77 |  | 47% |  | 7.20 |  |
| O=C(O)CN(CCN(CC(=O)O)CC(=O)NCCOCCOCCNS(=O)(=O)c1ccc(O[C@H]2c3ccccc3C[C@@H]2N2CCCCC2)cc1)CC(=O)NCCOCCOCCNS(=O)(=O)c1ccc(O[C@H]2c3ccccc3C[C@@H]2N2CCCCC2)cc1 [compound 65] | 1.41 nM |  |  | 93% |  |  | 1 | 8.00 |  |  | 85% |  |  |

From patent US20240366589A1, “NHE3-BINDING COMPOUNDS AND METHODS FOR INHIBITING PHOSPHATE TRANSPORT” (Ardelyx, Inc., priority 2013, published 2024)
